Measured values published in ChEMBL document CHEMBL3991601, “The target landscape of clinical kinase drugs” (Science, 2017).
Structures can show the parent of a compound that is named as a salt. Active and inactive are the calls of the source. Cut-off read from the data, not from the text of the source, for most assays here: actives have a measured Kd and inactives only a lower limit.

Key:
[1] = biological target: T1, Discoidin domain-containing receptor 2 (Homo sapiens, UniProt Q16832)
T1 sequence (Q16832 whole entry): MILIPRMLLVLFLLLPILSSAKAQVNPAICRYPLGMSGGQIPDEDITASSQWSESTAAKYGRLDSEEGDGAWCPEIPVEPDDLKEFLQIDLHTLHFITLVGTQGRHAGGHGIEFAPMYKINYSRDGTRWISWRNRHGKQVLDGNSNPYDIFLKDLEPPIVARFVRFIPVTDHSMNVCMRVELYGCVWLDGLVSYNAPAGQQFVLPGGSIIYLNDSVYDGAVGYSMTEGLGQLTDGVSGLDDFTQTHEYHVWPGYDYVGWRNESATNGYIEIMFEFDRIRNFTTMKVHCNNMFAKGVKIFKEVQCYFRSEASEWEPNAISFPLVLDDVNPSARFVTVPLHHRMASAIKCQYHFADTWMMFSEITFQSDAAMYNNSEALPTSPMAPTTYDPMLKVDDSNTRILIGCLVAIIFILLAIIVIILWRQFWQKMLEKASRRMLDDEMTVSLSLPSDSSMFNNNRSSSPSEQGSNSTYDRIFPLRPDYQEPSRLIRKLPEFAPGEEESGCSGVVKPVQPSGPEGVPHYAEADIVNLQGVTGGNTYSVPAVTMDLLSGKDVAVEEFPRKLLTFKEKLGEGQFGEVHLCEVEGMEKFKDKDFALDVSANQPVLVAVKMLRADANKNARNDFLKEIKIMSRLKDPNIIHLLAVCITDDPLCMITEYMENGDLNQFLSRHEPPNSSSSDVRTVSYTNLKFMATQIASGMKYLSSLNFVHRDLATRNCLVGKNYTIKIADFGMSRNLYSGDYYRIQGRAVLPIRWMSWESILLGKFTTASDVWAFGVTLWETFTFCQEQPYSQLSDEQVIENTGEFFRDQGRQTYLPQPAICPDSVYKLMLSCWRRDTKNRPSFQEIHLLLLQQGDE

[2] = biological target: Ribosomal protein S6 kinase alpha-1 (Homo sapiens, UniProt Q15418)
Chain of Ribosomal protein S6 kinase alpha-1 (Q15418 whole entry): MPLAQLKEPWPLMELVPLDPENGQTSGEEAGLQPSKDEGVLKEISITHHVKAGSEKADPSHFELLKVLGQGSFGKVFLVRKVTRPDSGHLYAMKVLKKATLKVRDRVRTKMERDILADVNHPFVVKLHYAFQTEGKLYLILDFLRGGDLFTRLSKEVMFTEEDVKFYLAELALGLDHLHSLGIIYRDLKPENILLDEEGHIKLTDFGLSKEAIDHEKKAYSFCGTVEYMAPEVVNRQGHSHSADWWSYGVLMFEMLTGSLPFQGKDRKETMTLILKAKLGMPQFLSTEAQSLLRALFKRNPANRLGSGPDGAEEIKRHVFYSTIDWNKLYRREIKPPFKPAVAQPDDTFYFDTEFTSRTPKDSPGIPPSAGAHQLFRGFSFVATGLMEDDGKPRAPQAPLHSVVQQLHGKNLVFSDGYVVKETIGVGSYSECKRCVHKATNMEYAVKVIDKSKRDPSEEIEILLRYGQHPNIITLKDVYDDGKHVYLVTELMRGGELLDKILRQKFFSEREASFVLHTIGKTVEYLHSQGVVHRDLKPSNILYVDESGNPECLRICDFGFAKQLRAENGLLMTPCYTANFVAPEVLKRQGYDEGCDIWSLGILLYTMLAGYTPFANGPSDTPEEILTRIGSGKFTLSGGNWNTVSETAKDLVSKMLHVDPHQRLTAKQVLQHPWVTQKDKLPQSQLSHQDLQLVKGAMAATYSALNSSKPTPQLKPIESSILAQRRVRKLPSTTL

[3] = biological target: Mitogen-activated protein kinase 8 (Homo sapiens, UniProt P45983)
Chain of Mitogen-activated protein kinase 8 (P45983 whole entry): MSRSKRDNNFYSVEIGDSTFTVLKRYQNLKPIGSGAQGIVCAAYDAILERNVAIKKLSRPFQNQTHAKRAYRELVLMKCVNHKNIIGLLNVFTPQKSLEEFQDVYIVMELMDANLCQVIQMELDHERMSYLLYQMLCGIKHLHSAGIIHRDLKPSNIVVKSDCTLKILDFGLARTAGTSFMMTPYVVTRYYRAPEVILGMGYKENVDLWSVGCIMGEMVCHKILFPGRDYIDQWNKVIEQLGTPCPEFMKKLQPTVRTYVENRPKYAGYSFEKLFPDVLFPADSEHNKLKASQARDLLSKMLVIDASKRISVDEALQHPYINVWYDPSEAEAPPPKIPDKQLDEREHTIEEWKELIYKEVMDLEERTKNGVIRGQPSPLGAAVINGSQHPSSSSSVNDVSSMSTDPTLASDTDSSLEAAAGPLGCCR

[4] = biological target: Mitogen-activated protein kinase 3 (Homo sapiens, UniProt P27361)
Chain of Mitogen-activated protein kinase 3 (P27361 whole entry): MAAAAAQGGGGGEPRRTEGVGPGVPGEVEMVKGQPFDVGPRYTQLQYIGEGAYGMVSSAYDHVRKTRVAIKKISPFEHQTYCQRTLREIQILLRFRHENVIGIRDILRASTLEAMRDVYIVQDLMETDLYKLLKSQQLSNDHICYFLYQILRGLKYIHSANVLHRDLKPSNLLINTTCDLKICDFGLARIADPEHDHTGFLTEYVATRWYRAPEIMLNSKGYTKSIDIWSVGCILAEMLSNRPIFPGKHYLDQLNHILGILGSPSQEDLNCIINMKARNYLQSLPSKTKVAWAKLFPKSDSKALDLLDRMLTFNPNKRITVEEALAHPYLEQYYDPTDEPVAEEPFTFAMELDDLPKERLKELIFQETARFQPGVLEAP

[5] = biological target: Tyrosine-protein kinase HCK (Homo sapiens, UniProt P08631)
Chain of Tyrosine-protein kinase HCK (P08631 whole entry): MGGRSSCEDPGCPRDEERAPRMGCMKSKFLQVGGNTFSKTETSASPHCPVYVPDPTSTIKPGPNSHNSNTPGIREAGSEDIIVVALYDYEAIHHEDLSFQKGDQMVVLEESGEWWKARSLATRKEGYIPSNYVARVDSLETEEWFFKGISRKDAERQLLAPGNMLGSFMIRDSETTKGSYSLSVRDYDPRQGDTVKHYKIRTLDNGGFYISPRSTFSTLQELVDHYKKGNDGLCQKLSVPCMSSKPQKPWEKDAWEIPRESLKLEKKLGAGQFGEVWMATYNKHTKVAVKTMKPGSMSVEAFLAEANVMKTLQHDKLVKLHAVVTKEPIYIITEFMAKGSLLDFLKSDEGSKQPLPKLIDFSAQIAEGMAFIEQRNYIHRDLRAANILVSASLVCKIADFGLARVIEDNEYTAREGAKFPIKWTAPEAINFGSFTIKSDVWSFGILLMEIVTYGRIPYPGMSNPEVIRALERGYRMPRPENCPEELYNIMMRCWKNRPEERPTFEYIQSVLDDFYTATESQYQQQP

[6] = biological target: T2, Exosome RNA helicase MTR4 (Homo sapiens, UniProt P42285)
T2 sequence (P42285 whole entry): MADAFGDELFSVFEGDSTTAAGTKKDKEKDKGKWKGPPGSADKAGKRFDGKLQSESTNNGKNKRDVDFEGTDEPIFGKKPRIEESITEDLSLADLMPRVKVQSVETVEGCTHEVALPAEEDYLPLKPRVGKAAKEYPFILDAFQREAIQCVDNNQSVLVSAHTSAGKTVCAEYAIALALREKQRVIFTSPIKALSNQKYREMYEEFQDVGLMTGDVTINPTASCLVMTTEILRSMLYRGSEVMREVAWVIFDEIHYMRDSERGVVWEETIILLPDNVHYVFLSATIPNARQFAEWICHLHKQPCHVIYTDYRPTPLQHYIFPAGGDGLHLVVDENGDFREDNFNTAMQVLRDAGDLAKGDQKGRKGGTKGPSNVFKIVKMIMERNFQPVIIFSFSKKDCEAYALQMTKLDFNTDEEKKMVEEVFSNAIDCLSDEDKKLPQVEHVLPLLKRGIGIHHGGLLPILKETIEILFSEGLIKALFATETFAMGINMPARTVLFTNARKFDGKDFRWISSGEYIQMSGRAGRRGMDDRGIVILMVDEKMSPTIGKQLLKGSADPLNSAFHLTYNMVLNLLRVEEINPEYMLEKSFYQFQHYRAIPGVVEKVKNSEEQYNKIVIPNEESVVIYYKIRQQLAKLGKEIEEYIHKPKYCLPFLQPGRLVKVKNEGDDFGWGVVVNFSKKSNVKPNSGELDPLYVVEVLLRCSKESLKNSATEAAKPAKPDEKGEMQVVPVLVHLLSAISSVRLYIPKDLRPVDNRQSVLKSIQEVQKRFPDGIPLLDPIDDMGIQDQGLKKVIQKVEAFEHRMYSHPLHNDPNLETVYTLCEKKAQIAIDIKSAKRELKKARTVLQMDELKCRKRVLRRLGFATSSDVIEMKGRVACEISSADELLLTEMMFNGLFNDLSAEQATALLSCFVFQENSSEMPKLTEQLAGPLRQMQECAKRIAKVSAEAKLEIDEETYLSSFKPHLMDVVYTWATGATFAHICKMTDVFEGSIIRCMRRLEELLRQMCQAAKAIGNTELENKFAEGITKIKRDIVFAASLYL

Measured: Kd
Note: in the data inactive means no Kd found up to 30 µM.

Cn1cnc2c(F)c(Nc3ccc(Br)cc3F)c(C(=O)NOCCO)cc21 [BINIMETINIB]
inactive: [1] > 30 µM | [2] > 30 µM | [3] > 30 µM | [4] > 30 µM | [5] > 30 µM | [6] > 30 µM

CCn1c(C(=O)N(C2CC2)C2CC2)cc2c3c(ncn3C)c(Nc3cc(C)n(C)n3)nc21 [BMS-911543]
inactive: [1] > 30 µM | [2] > 30 µM | [3] > 30 µM | [4] > 30 µM | [5] > 30 µM | [6] > 30 µM

COc1cc2ncnc(Oc3cccc(NC(=O)Nc4cc(C(C)(C)C(F)(F)F)on4)c3)c2cc1OC [CEP-32496]
active: [1] 0.183 µM | [3] 1.47 µM
inactive: [2] > 30 µM | [4] > 30 µM | [5] > 30 µM | [6] > 30 µM

Cc1cc(Nc2ncc(Cl)c(Nc3ccccc3S(=O)(=O)C(C)C)n2)c(OC(C)C)cc1C1CCNCC1 [CERITINIB]
active: [2] 21.4 µM
inactive: [1] > 30 µM | [3] > 30 µM | [4] > 30 µM | [5] > 30 µM | [6] > 30 µM

COc1c(OCCCN2CCOCC2)ccc2c1N=C(NC(=O)c1cnc(N)nc1)N1CCN=C21 [COPANLISIB]
inactive: [1] > 30 µM | [2] > 30 µM | [3] > 30 µM | [4] > 30 µM | [5] > 30 µM | [6] > 30 µM

COCC(=O)NC/C=C/c1ccc2ncnc(Nc3ccc(Oc4ccc(C)nc4)c(C)c3)c2c1 [CP-724714]
inactive: [1] > 30 µM | [2] > 30 µM | [3] > 30 µM | [4] > 30 µM | [5] > 30 µM | [6] > 30 µM

C#Cc1cccc(Nc2ncnc3cc(OC)c(OCCCCCCC(=O)NO)cc23)c1 [CUDC-101]
inactive: [1] > 30 µM | [2] > 30 µM | [3] > 30 µM | [4] > 30 µM | [5] > 30 µM | [6] > 30 µM

CCS(=O)(=O)N1CCN(c2ccc(Nc3ncc(C(N)=O)c(NC4CC4)n3)cc2)CC1 [Cerdulatinib Hydrochloride]
inactive: [1] > 30 µM | [2] > 30 µM | [4] > 30 µM | [5] > 30 µM | [6] > 30 µM
active: [3] 0.356 µM

Cc1nc2cc(-n3ncc(C(=O)c4cc5ccccc5[nH]4)c3N)ccc2[nH]1 [FGFR INHIBITOR DEBIO 1347]
inactive: [1] > 30 µM | [2] > 30 µM | [3] > 30 µM | [4] > 30 µM | [5] > 30 µM | [6] > 30 µM

O=C(Nc1nc2cccc(-c3ccc(CN4CCS(=O)(=O)CC4)cc3)n2n1)C1CC1 [FILGOTINIB]
inactive: [1] > 30 µM | [2] > 30 µM | [3] > 30 µM | [4] > 30 µM | [5] > 30 µM | [6] > 30 µM

Cc1cccc(-c2nn3c(c2-c2ccnc4ccc(C(N)=O)cc24)CCC3)n1 [GALUNISERTIB]
inactive: [1] > 30 µM | [2] > 30 µM | [3] > 30 µM | [4] > 30 µM | [5] > 30 µM | [6] > 30 µM

COc1ccc(S(=O)(=O)N(C(C)=O)c2ccccc2/C=C/c2cc[n+]([O-])cc2)cc1 [HMN-214]
inactive: [1] > 30 µM | [2] > 30 µM | [3] > 30 µM | [4] > 30 µM | [5] > 30 µM | [6] > 30 µM

O=C(Nc1cc(C(F)(F)F)cc(C(F)(F)F)c1)c1cc(Cl)ccc1O [IMD-0354]
inactive: [1] > 30 µM | [2] > 30 µM | [3] > 30 µM | [4] > 30 µM | [5] > 30 µM | [6] > 30 µM

CNC(=O)c1cccc2cc(Oc3ccnc4cc(OCC5(N)CC5)c(OC)cc34)ccc12 [LUCITANIB]
active: [1] 0.094 µM
inactive: [2] > 30 µM | [3] > 30 µM | [4] > 30 µM | [5] > 30 µM | [6] > 30 µM

CNC(=O)c1nn(C)c2c1C(C)(C)Cc1cnc(Nc3ccc(N4CCN(C)CC4)cc3)nc1-2 [MILCICLIB]
active: [1] 4.29 µM | [5] 1.32 µM
inactive: [2] > 30 µM | [3] > 30 µM | [4] > 30 µM | [6] > 30 µM

NC1(c2ccc(-c3nc4ccn5c(=O)[nH]nc5c4cc3-c3ccccc3)cc2)CCC1 [MK-2206]
inactive: [1] > 30 µM | [2] > 30 µM | [3] > 30 µM | [4] > 30 µM | [5] > 30 µM | [6] > 30 µM

CN(C[C@@H]1COCCO1)S(=O)(=O)Nc1ccc2ccc3ncc(-c4cnn(C)c4)cc3c(=O)c2c1 [MK-2461]
inactive: [1] > 30 µM | [2] > 30 µM | [3] > 30 µM | [4] > 30 µM | [5] > 30 µM | [6] > 30 µM

Cn1cc(-c2cnc3ccc4ccc(CS(=O)(=O)NCc5ccccn5)cc4c(=O)c3c2)cn1 [MK-8033]
inactive: [1] > 30 µM | [2] > 30 µM | [3] > 30 µM | [4] > 30 µM | [5] > 30 µM | [6] > 30 µM

FC(F)(F)c1ccc(/C=C/c2nc(COc3ccc(CCCCn4ccnn4)cc3)co2)cc1 [MUBRITINIB]
inactive: [1] > 30 µM | [2] > 30 µM | [3] > 30 µM | [4] > 30 µM | [5] > 30 µM | [6] > 30 µM

COc1ncc(-c2ccc3nccc(-c4ccnnc4)c3c2)cc1NS(=O)(=O)c1ccc(F)cc1F [OMIPALISIB]
inactive: [1] > 30 µM | [2] > 30 µM | [3] > 30 µM | [4] > 30 µM | [5] > 30 µM | [6] > 30 µM

CCOc1cc2ncc(C#N)c(Nc3ccc(F)c(Cl)c3)c2cc1NC(=O)/C=C/CN(C)C [PELITINIB]
inactive: [1] > 30 µM | [2] > 30 µM | [3] > 30 µM | [4] > 30 µM | [6] > 30 µM
active: [5] 1.18 µM

CCCCCCCCCCCCCCCCCCOP(=O)([O-])OC1CC[N+](C)(C)CC1 [PERIFOSINE]
inactive: [1] > 30 µM | [2] > 30 µM | [3] > 30 µM | [4] > 30 µM | [5] > 30 µM | [6] > 30 µM

Cc1nc(Nc2n[nH]c3c2CN(C(=O)N[C@H](CN(C)C)c2ccccc2)C3(C)C)c2sccc2n1 [PF-03758309]
inactive: [1] > 30 µM | [3] > 30 µM | [5] > 30 µM | [6] > 30 µM
active: [2] 0.82 µM | [4] 3.87 µM

Cc1cnc(NC(=O)Nc2cc(Br)c(C)cc2OC[C@@H]2CNCCO2)cn1 [RABUSERTIB]
inactive: [1] > 30 µM | [2] > 30 µM | [3] > 30 µM | [4] > 30 µM | [5] > 30 µM | [6] > 30 µM
